Source: patent US5254589A, “Sulfonyl urea and carbamate ACAT inhibitors” (priority 1991, dated 1993)

Tests used:
[1] = molecular target: T1, acyl-CoA:cholesterol acyltransferase (ACAT) (Oryctolagus cuniculus, UniProt G1SFD9); assay: In vitro ACAT inhibition (IAI): formation of radiolabeled cholesterol oleate from radiolabeled oleic acid in rabbit intestinal microsomes; assay type: biochemical; conditions: inhibition of acylation of cholesterol by oleic acid
T1 construct: in a tissue preparation containing rabbit intestinal microsomes; from tissue; host or cells: rabbit intestine, microsomes
T1 sequence (G1SFD9 1-524): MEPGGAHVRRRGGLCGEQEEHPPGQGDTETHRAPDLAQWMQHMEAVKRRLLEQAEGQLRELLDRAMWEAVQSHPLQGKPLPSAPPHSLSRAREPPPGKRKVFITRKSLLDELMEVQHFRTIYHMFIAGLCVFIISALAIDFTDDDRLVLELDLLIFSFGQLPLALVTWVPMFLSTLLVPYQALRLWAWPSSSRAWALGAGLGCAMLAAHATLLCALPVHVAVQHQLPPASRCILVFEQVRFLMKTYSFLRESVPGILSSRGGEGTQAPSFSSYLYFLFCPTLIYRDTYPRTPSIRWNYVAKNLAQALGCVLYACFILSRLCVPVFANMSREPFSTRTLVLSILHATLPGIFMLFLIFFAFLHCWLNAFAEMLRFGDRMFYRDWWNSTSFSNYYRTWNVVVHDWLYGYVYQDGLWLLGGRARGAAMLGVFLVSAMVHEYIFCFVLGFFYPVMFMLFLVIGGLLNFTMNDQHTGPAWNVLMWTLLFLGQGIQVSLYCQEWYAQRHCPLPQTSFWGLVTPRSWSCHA
Source text: As shown by the data presented below in Table 1, the compounds of the present invention are potent inhibitors of the enzyme acyl-CoA:cholesterolacyltransferase (ACAT), and are thus effective in inhibiting the esterification and transport of cholesterol across the intestinal cell wall. The compounds of the present invention are thus useful in pharmaceutical formulations for the treatment of hypercholesterolemia or atherosclerosis. The ability of representative compounds of the present invention to inhibit ACAT was measured using an in vitro test more fully described in F. J. Field and R. G. Salone, Biochemica et Biophysica 712:557-570 (1982). The test assesses the ability of a test compound to inhibit the acylation of cholesterol by oleic acid by measuring the amount of radiolabeled cholesterol oleate formed from radiolabeled oleic acid in a tissue preparation containing rabbit intestinal microsomes.

[2] = In vivo screen APCC: blood cholesterol in rats fed a high fat, high cholesterol diet with 0.5% cholic acid; parameters: species or system male Sprague-Dawley rats; conditions: 16 h, rat, 30 mg/kg unless otherwise noted, dosed at 4 PM, high cholesterol diet overnight, blood sampled at 8 AM, read-out: APCC (% .increment.TC)
Source text: In one in vivo screen designated APCC, male Sprague-Dawley rats (200 to 225 g) were randomly divided into treatment groups and dosed at 4 PM with either vehicle (CMC/Tween) or suspensions of compounds in vehicle. The normal chow diet was then replaced with a high fat, high cholesterol diet with 0.5% cholic acid. The rats consumed this diet ad libitum during the night and were sacrificed at 8 AM to obtain blood samples for cholesterol analysis using standard procedures. Statistical differences between mean cholesterol values for the same vehicle were determined using analysis of variance followed by Fisher's least significant test. The compounds were dosed at 30 mg/kg unless otherwise noted.

Compound	IC50 [1]	change in vivo at 30 mg/kg [2]
CCCCCCCCCCCCCCS(=O)(=O)NC(=O)Nc1c(C(C)C)cccc1C(C)C [Example 2, N-[2,6-Bis(1-methylethyl)phenyl]-N'-(tetradecylsulfonyl)urea]	830 nM	-56%
CCCCCCCCS(=O)(=O)NC(=O)Nc1c(C(C)C)cccc1C(C)C [Example 5, N-[2,6-Bis(1-methylethyl)phenyl]-N'-(octylsulfonyl)urea]	> 5000 nM	
CCCCCCCCCCCCCCS(=O)(=O)N(Cc1ccccc1)C(=O)Nc1c(C(C)C)cccc1C(C)C [Example 4]	510 nM	
CCCCCCCCCCCCCCS(=O)(=O)N(C)C(=O)Nc1c(C(C)C)cccc1C(C)C [Example 3, N-[2,6-Bis(1-methylethyl)phenyl]-N'-methyl-N'-(tetradecylsulfonyl)urea]	> 5000 nM	-34%
CCCCCCCCCCCCCC(C)S(=O)(=O)NC(=O)Nc1c(C(C)C)cccc1C(C)C (stereo not shown) [Example 1, N-[2,6-Bis(1-methylethyl)phenyl]-N'-(2-pentadecylsulfonyl)urea]	1020 nM	-76%

More lines, main results first:

IC50 [1]	Compound	change in vivo at 30 mg/kg [2]
1270 nM	CCCCCCCCCCCCCCCCS(=O)(=O)NC(=O)Nc1c(C(C)C)cccc1C(C)C [Example 7, N-[2,6-Bis(1-methylethyl)phenyl]-N'-(hexadecylsulfonyl)urea]	-64%
5000 nM	CCCCCCCCCCCCCCS(=O)(=O)NC(=O)Nc1ccc(F)cc1F [Example 10, N-(2,4-Difluorophenyl)-N'-(tetradecylsulfonyl)urea]	-14%
1190 nM	CCCCCCCCCCCCS(=O)(=O)NC(=O)Nc1c(C(C)C)cccc1C(C)C [Example 6, N-[2,6-Bis(1-methylethyl)phenyl]-N'-(dodecylsulfonyl)urea]	-63%
13000 nM	CCCCCCCCCCS(=O)(=O)NC(=O)Nc1c(C(C)C)cccc1C(C)C [Example 8, N-[2,6-Bis(1-methylethyl)phenyl]-N'-(decylsulfonyl)urea]	-31%
86 nM	CCCCCCCCCCCCS(=O)(=O)N(C)C(=O)Nc1c(C(C)C)cccc1C(C)C [Example 11]	-49%
2000 nM	CCCCCCCCCCCCCC(c1ccccc1)S(=O)(=O)NC(=O)Nc1c(C(C)C)cccc1C(C)C (stereo not shown) [Example 14, N-[2,6-Bis(1-methylethyl)phenyl]-N'-(1-phenyl-1-tetradecylsulfonyl)urea]	-72%
9200 nM	CCCCCCCCC(c1ccccc1)S(=O)(=O)NC(=O)Nc1c(C(C)C)cccc1C(C)C (stereo not shown) [Example 15, N-[2,6-Bis(1-methylethyl)phenyl]-N'-(1-phenyl-1-nonylsulfonyl)urea]	-75%
